melting point: 92 to 94 °C
Structure (SMILES): C=CC(=O)OCCN(CCOC(=O)C=C)c1ccc(N=Nc2snc(C)c2C#N)c(NC(C)=O)c1 [Example 5, Acrylic acid 2-[{3-acetylamino-4-(4-cyano-3-methylisothiazol-5-ylazo)-phenyl}-{2-acryloyloxyethyl}-amino]-ethyl ester]

Reference: patent US20140084216A1 (Merck Patent GmbH, priority 2011, published 2014)
